# Laboratory results taken from the SangsterLogP compilation.
# Test: method code SF-AS, from PMID: 4480356
row,SMILES,logP
1,O=C(O)c1ccccc1C(c1ccc(O)cc1)c1ccc(O)cc1,2.61
2,OCc1ccccc1C(c1ccc(O)cc1)c1ccc(O)cc1,3.27
3,Nc1ccccc1C(c1ccc(O)cc1)c1ccc(O)cc1,3.16
4,Cc1cnc(Cc2ccc(O)cc2)s1,2.62
5,Oc1ccc(Cc2ccc(O)cc2)cc1,2.91

# Results, then the compound that gave them:
row,logP,SMILES
1,2.96,Oc1ccc(C(c2ccc(O)cc2)c2nccs2)cc1
2,3.34,Cc1cnc(C(c2ccc(O)cc2)c2ccc(O)cc2)s1
3,3.24,Oc1ccc(C(c2ccncc2)c2ccc(O)cc2)cc1
4,2.84,Oc1ccc(C(c2ccc(O)cc2)c2ccccn2)cc1
5,3.13,Oc1ccc(C(c2ccc(O)cc2)c2cccnc2)cc1
